Consider one molecule from patent US20260191863A1, “PYRROLOPYRIMIDINE COMPOSITIONS FOR TREATMENT OF ITK MEDIATED CONDITIONS” (ACLARIS THERAPEUTICS, INC., priority 2022, published 2026).

Values joined by “and” are separate entries in the source; they are usually repeats but may differ in a detail not shown here. Equal values may be shown once. “Also recorded” adds a separate entry of the source. Read-outs that look alike come from different tables or passages of the source. Bounds are passed on as bounds.

For one test, the system named is JAK3 (pSTAT5, CD3+ T). The test can be described thus: SAD ex vivo PD: IL2 stimulated pSTAT5 in CD3+ T cells. Conditions: Homo sapiens, T-cell; SAD study; read-out: Clinical EC50. From the text: Secondary Endpoints—Compound I plasma concentrations. Mean change from baseline in ex vivo stimulated pSTAT5 and pSTAT1 (signal transducer and activator of transcription); and in ex vivo stimulated IFNγ mRNA (interferon gamma messenger ribonucleic acid).
(§1) Summary of SAD data: FIGS. 4-8 and 9-13 show the SAD dose response, SAD exposure response, and SAD calculated response at Cmax by dose respectively for ITK (IL2 mRNA), ITK (IFNγ mRNA), JAK3 (pSTAT5, lymph), JAK3 (pSTAT5, CD3′ T), and ITK & JAK (IFNγ protein). Clinical and pre-clinical IC50 data for ITK (IL2 mRNA), ITK (IFNγ mRNA), JAK3 (pSTAT5, lymph), JAK3 (pSTAT5, CD3^+ T), and ITK & JAK (IFNγ protein) from the SAD study is shown in table 4.

For a further test, the target named is T1, JAK3 (Homo sapiens, UniProt P52333).
T1 construct: IL-2/pSTAT5; endogenous in cells; host or cells: human PBMC
T1 sequence (P52333 1-1124): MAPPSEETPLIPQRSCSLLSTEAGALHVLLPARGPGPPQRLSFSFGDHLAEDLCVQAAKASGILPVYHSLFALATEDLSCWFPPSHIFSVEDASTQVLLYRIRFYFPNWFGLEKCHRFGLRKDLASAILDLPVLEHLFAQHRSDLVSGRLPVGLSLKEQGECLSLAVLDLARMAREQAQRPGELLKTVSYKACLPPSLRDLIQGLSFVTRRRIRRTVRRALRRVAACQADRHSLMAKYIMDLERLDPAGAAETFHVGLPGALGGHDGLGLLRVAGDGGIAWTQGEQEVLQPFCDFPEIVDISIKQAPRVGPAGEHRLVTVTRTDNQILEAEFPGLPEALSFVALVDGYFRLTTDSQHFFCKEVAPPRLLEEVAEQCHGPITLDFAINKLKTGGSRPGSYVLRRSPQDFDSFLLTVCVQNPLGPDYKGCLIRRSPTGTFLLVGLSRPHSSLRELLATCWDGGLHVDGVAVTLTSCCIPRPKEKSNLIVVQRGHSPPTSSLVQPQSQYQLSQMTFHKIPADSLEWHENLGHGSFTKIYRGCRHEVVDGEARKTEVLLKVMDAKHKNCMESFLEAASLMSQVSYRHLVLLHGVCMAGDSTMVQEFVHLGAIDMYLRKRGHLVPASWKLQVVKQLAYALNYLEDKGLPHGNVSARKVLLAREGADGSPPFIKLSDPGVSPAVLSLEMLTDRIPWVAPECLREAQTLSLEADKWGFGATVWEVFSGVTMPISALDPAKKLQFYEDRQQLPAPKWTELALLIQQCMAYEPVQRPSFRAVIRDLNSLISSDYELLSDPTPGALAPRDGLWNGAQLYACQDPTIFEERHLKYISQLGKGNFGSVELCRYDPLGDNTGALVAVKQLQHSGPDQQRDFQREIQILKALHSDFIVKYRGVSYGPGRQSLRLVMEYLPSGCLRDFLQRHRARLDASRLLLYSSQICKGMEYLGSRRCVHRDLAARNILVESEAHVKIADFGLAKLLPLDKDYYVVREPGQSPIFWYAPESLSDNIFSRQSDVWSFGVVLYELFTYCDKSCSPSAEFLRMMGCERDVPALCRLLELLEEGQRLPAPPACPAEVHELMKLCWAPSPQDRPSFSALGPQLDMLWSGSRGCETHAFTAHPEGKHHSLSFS
The experiment in a line: Cell IC50 JAK3 hPBMC IL-2/pSTAT5. In kind it is cell-based.

Test [1] concerns ankle diameter swelling (Antigen Induced Arthritis). The test can be described thus: Rat Antigen Induced Arthritis (AIA) model, ankle diameter swelling. In kind it is in vivo. The following applies: PO from day 6. An excerpt: The study evaluated the rat AIA kinetics of ankle diameter swelling. Therapeutic model with PO dosing beginning on day 6.
Test [2] relates to IL15 stimulated IFNγ protein. The experiment in a line: MAD ex vivo PD: IL15 stimulated IFNγ protein. The format is in vivo. The following applies: Homo sapiens. From the text: (§2) Exploratory Endpoints—Mean change from baseline in cellular, extracellular (secreted), and/or message markers of inflammation.
EC50 and IC50 data for αCD3 & αCD28 stimulated IL2mRNA, IL15 stimulated IFNγ protein, and αCD3 & IL15 stimulated IFNγ protein is shown in table 9.

A further test relates to ITK and JAK3. The test can be described thus: MAD exploratory PD, all biomarker readouts. The format is in vivo, human. As to the method: as §2
Results: 57 subjects completed the MAD study. […] Peak concentrations were reached within 2 hours after dosing.

Another test deals with ITK & JAK (IFNγ protein). The experiment in a line: SAD ex vivo PD: αCD3/IL15 stimulated IFNγ protein production. In kind it is in vivo, human. The following applies: for EC50: Homo sapiens; for Inhibition of dual ITK and JAK3-stimulated IFNγ protein production: SAD higher dose cohorts.
Source text: as §1

In the case of `C=CC(=O)N1C[C@H](Nc2ncnc3[nH]cc([C@H]4CC4(F)F)c23)CC[C@@H]1C` [Compound I, 1-((2S,5R)-5-((5-((R)-2,2-difluorocyclopropyl)-7H-pyrrolo[2,3-d]pyrimidin-4-yl)amino)-2-methylpiperidin-1-yl)prop-2-en-1-one], the EC50 (as a rule, the midpoint of the concentration-response curve) in the test on JAK3 (pSTAT5, CD3+ T) is 110 nM; in test [2], 0.0022 µg/mL and 6.1 nM; in the test on ITK & JAK (IFNγ protein) (SAD study, read-out: Clinical EC50), 7.3 nM; in the test with ITK & JAK (IFNγ protein) (read-out: SAD EC50), 0.0026 µg/mL and 7.3 nM. The “Potency relative to Ritlecitinib, JAK3 hPBMC IL-2/pSTAT5” value on JAK3 was 2.3 fold. Besides, on JAK3 (hPBMC, IL-2/pSTAT5), the concentration for half-maximal inhibition (IC50) (commonly the concentration that inhibits the measured activity by half) was determined as 23 nM. Further, the JAK specificity result on JAK3 (vs other JAK kinases like JAK2) is “completely specific for JAK3”. The “Ankle diameter swelling, comparison of regimens” value in test [1] (rat AIA, 5 mpk BID, 15 BID and 30 QD) is listed as “No significant difference”. Further, the “BID vs QD dosing efficacy” value in test [1] (rat arthritis model) is “BID dosing is more effective than QD dosing”. Also, the “Inhibition of biomarker readouts, comparison of regimens” value with ITK and JAK3 (10 mg TID, 15 mg BID, 30 mg BID doses) was “inhibited biomarker readouts to a similar extent”. Further, the “Change of MAD Day 1 EC50 vs Days 7 & 15 EC50” value in the test with ITK and JAK3 (MAD) is on record as “No significant change”. Moreover, the “Modulation of all PD biomarker readouts” value in the test on ITK and JAK3 (MAD) is “dose- and time-dependent modulation; also recorded: dose and time dependent modulation”. Besides, the “Inhibition of biomarker readouts” value with ITK and JAK3 (MAD, 15-40 mg BID, across the dosing intervals) is reported as 50-90%; with ITK and JAK3 (MAD, 2 hours post treatment, doses of 15 mg to 80 mg) it was “Near-complete inhibition”. Also, the “Inhibition of dual ITK and JAK3-stimulated IFNγ protein production” value is on record as “Near complete inhibition” with ITK & JAK (IFNγ protein) and more than 50% with ITK & JAK (IFNγ protein) (maintained for 12 hours).
